Here are results for 8 molecules from patent publication US20060128699A1, “Novel pharmacophore for the discovery and testing of na,k-atpase inhibitor compositions and methods for their use in treating cardiovascular diseases and conditions” (priority 2002, published 2006).

pIC50: −log10 of the molar value. Several values for one entry are separate records, joined by “and”; a condition that tells them apart may be missing. Identical values can stand only once.

The target of test [1] is T1, Na, K-ATPase (Ovis aries, UniProt P04074).
T1 construct: Na, K-ATPase will be purified from the outer medulla of frozen lamb kidney; from tissue; host or cells: outer medulla of frozen lamb kidney
As to the kind of experiment: NKA assay started by addition of ATP. Format: biochemical, lamb. The conditions noted are these: for ratio (digoxin) / pIC50: assay started by addition of ATP; for ratio (digoxin): IC50_aver. relative to digoxin.
Excerpt: (§1) Briefly Na, K-ATPase will be purified from the outer medulla of frozen lamb kidney. Competitive binding assays will be performed in the presence and absence of varying concentrations of the potential inhibitors. Inhibition studies will be carried out with and without varying concentrations of the potential inhibitors, and the NADPH oxidation rate in the presence and absence of the inhibitors will be determined.

The target of test [2] is T1, Na, K-ATPase. Kind of test: NKA assay started by addition of KCl. Format: biochemical, lamb. To be noted: for ratio (digoxin): IC50_aver. relative to digoxin.
Excerpt: as §1
Test [3] concerns the target rat 1α-subunit of the Na, K-ATPase (Rattus norvegicus, UniProt P06685). To be noted: cited from earlier work.
The target in test [4] is human 1α-subunit of the Na, K-ATPase (Homo sapiens, UniProt P05023). The conditions noted are these: cited from earlier work.
Test [5] deals with sheep 1α-subunit of the Na, K-ATPase, Q111R and N122D mutant (Ovis aries, UniProt P04074, N127D/Q116R). The conditions noted are these: Q111R and N122D versus wild-type sheep catalytic subunit; cited from earlier work.
Test [6] concerns the target sheep 1α-subunit of the Na, K-ATPase, D121N mutant (Ovis aries, UniProt P04074, D126N). To be noted: D121N versus wild-type sheep; cited from earlier work.
The mark [7] stands for this setting: determination 1, read-out: IC50_1.
Where [8] appears, read: determination 2, read-out: IC50_2.
[9] abbreviates: determination 3, read-out: IC50_3.
Setting [10] is: assay started by addition of KCl.
[11] abbreviates: assay started by addition of KCl, average, read-out: IC50_aver.
Setting [12] is: assay started by addition of KCl, determination 1, read-out: IC50_1.
The mark [13] stands for this setting: assay started by addition of KCl, determination 2, read-out: IC50_2.

As to `Cc1cc(O)c2c(c1)C(=O)c1cc(O)cc(O)c1C2=O` [Compound 15, Emodin], the “ratio (digoxin)” value in test [1] is given as 220. For the same molecule, the pIC50 is 4.05 in test [1] (average, read-out: IC50_aver.); 4.49 in test [1] (setting [7]); 4.12 in test [1] (setting [8]); 3.79 in test [1] (setting [9]).

As to `COc1cc2c(c(OC)c1)Sc1ccccc1C(=O)C2` [Compound 28], the “ratio (digoxin)” value in test [2] (setting [10]) is reported as 6764. Also, the pIC50 in test [2] (setting [11]) was 4.17; in test [2] (setting [12]), 4.12; in test [2] (setting [13]), 4.22; in test [1] (average, read-out: IC50_aver.), 3.45 and 4.42; in test [1] (setting [8]), 4.37; in test [1] (setting [9]), 4.44. The pIC50 in test [1] (determination 4, read-out: IC50_4) is 3.84. Further, the “ATPase inhibition (in words)” value in test [1] is “strong ATPase inhibition”.

On to `C[C@@H]1O[C@@H](O[C@H]2C[C@@H](O)[C@]3(CO)[C@H]4[C@H](O)C[C@]5(C)[C@@H](C6=CC(=O)OC6)CC[C@]5(O)[C@@H]4CC[C@]3(O)C2)[C@H](O)[C@H](O)[C@H]1O` [ouabain], for which the “sensitivity to ouabain inhibition (in words)” value in test [3] (rat subunit) is on record as “insensitive”. The “loss in ouabain inhibition” value in test [3] (rat α1-subunit) was around 1000 fold. The “sensitivity to ouabain (in words)” value in test [4] is on record as “sensitive”. Besides, the “less sensitive to ouabain than wild-type” value in test [5] is 1150 fold. Also, the “decrease in sensitivity to ouabain” value in test [6] was 1000 fold.

For the molecule `CC(CCc1ccc(O)cc1)NCCc1ccc(O)c(O)c1` (stereo not shown) [Compound 25, R—S Dobutamine], the “ratio (digoxin)” value in test [1] worked out at 173. The pIC50 in test [1] (average, read-out: IC50_aver.) was 4.15; in test [1] (setting [7]), 4.19; in test [1] (setting [8]), 4.11.

Turning to Lacmoid [Compound 19], the “ratio (digoxin)” value turned out to be 340 in test [2] (setting [10]) and 32.9 in test [1]. Besides, the pIC50 is 5.47 in test [2] (setting [11]); 5.45 in test [2] (setting [12]); 5.49 in test [2] (setting [13]); 4.87 in test [1] (average, read-out: IC50_aver.); 4.95 in test [1] (setting [7]); 3.72 in test [1] (setting [8]). Moreover, in test [1] (setting [9]), the pIC50 was 5.01. Further, in test [1], the “ATPase inhibition (in words)” value is given as “strong ATPase inhibition”.

As to `O=C1C=CC2C(=C1[N+](=O)[O-])Oc1c(ccc(O)c1[N+](=O)[O-])C2c1ccccc1C(=O)O` (stereo not shown) [Compound 14, 4′-5′ Di nitroflorescein], the pIC50 in test [2] (IC50_1, assay started by addition of KCl, determination 1) is 5.11; in test [2] (IC50_2, assay started by addition of KCl, determination 2), 5.02; in test [2] (IC50_aver., assay started by addition of KCl, average), 5.06; in test [1] (average, read-out: IC50_aver.) it was 5.06; in test [1] (setting [7]), 5.24; in test [1] (setting [8]) it was 5.05. In addition, in test [1] (setting [9]), the pIC50 is 4.93. Besides, the figures for the “ratio (digoxin)” value in test [2] (setting [10]) and in test [1] were 869 and 21.5, respectively. The “ATPase inhibition (in words)” value in test [1] is given as “strong ATPase inhibition”.

As to `COc1cccc2c1Sc1ccccc1C(=O)C2` [Compound 27], the “ratio (digoxin)” value in test [1] came out at 497. Further, the pIC50 was 3.69 in test [1] (average, read-out: IC50_aver.); 3.41 in test [1] (setting [7]); 3.99 in test [1] (setting [8]); 3.92 in test [1] (setting [9]).

As to `Oc1cc(O)c2c(c1)O[C@H](c1ccc(O)c(O)c1)[C@@H](O)C2` [Compound 9, (+)-Catechin Hydrate], the “ratio (digoxin)” value in test [1] stood at 664. Moreover, the pIC50 in test [1] (average, read-out: IC50_aver.) was 3.57; in test [1] (setting [7]), 3.54; in test [1] (setting [8]), 3.60.
